Laboratory results published in PubChem BioAssay (NCI).
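Growth conditions: 96-well plates. Treatment: test compound, 48 hours, 5 concentrations. Analysis: linear interpolation between bracketing concentrations; unreached endpoints set to highest concentration. GI50: concentration for 50% inhibition of growth. TGI: concentration producing complete growth inhibition.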 Non-standard residues stand in square brackets, D forms with d. Residues, ends and D or L forms follow the SMILES beside them. *: point of attachment. ONb = O=[N+]([O-])c1ccc(CO*)cc1; AllylGly = C=CC[CH](N)C(=O)O; Boc = CC(C)(C)OC(=O)*

Experiments:
Experiment in all cases: NCI-60 cell line screen, 48 h
U251 CNS = system: U251 CNS
HCT-116 colon = system: HCT-116 colon
SK-MEL-2 melanoma = system: SK-MEL-2 melanoma
A498 renal = system: A498 renal
IGROV1 ovarian = system: IGROV1 ovarian
HOP-92 NSCLC = system: HOP-92 NSCLC
SF-539 CNS = system: SF-539 CNS
CAKI-1 renal = system: CAKI-1 renal
T-47D breast = system: T-47D breast
DU-145 prostate = system: DU-145 prostate

O=C(CNc1nncs1)NO
TGI (U251 CNS): > 100 µM | TGI (HCT-116 colon): > 100 µM | TGI (SK-MEL-2 melanoma): > 100 µM | TGI (A498 renal): > 100 µM | TGI (IGROV1 ovarian): > 100 µM | TGI (HOP-92 NSCLC): > 100 µM | TGI (SF-539 CNS): > 100 µM

COc1cccc2cc(C)c(C(=O)c3ccccc3)nc12
TGI (CAKI-1 renal): > 100 µM | TGI (U251 CNS): > 100 µM | TGI (HCT-116 colon): > 100 µM | TGI (SK-MEL-2 melanoma): > 100 µM | TGI (IGROV1 ovarian): > 100 µM | TGI (SF-539 CNS): > 100 µM

COc1nc(N(C)O)nc(N(C)O)n1
GI50 (CAKI-1 renal): 0.491 µM | TGI (CAKI-1 renal): 17.3 µM | GI50 (U251 CNS): 0.716 µM | TGI (U251 CNS): > 100 µM | GI50 (HCT-116 colon): 0.402 µM | TGI (HCT-116 colon): 3.88 µM | GI50 (SK-MEL-2 melanoma): 6.1 µM | TGI (SK-MEL-2 melanoma): > 100 µM | GI50 (A498 renal): 7.19 µM | TGI (A498 renal): 80.5 µM | GI50 (IGROV1 ovarian): 0.632 µM | TGI (IGROV1 ovarian): > 100 µM | GI50 (T-47D breast): 4.51 µM | TGI (T-47D breast): > 100 µM | GI50 (SF-539 CNS): 1.26 µM | TGI (SF-539 CNS): 9.69 µM | GI50 (DU-145 prostate): 0.858 µM | TGI (DU-145 prostate): > 100 µM

CC1=C(C)C(=O)c2c(cc3ccc4ccccc4n23)C1=O
TGI (U251 CNS): > 100 µM | TGI (A498 renal): > 100 µM | TGI (IGROV1 ovarian): > 100 µM | TGI (SF-539 CNS): > 100 µM

COc1ccc2cc(C(=O)/C=C/c3cc(OC)c(OC)c(OC)c3)ccc2c1
GI50 (CAKI-1 renal): 3.41 µM | TGI (CAKI-1 renal): 28.3 µM | GI50 (U251 CNS): 1.68 µM | TGI (U251 CNS): 9.48 µM | GI50 (HCT-116 colon): 1.62 µM | TGI (HCT-116 colon): 8.27 µM | GI50 (IGROV1 ovarian): 5.49 µM | TGI (IGROV1 ovarian): 18.5 µM | GI50 (HOP-92 NSCLC): 21.9 µM | TGI (HOP-92 NSCLC): > 50 µM | GI50 (T-47D breast): > 50 µM | TGI (T-47D breast): > 50 µM | GI50 (DU-145 prostate): 2.06 µM | TGI (DU-145 prostate): 11.2 µM

Cn1c(=O)nc2n(-c3ccc(Cl)cc3)c3ccc(Cl)cc3nc-2c1=O
TGI (CAKI-1 renal): 25.9 µM | TGI (HCT-116 colon): 20.9 µM | TGI (SK-MEL-2 melanoma): 16.9 µM | TGI (A498 renal): 24.6 µM | TGI (IGROV1 ovarian): 51.1 µM | TGI (HOP-92 NSCLC): 25.1 µM

Nn1c(-c2ccccc2)nc2ccc(Br)cc2c1=O
TGI (CAKI-1 renal): > 100 µM | TGI (U251 CNS): > 100 µM | TGI (HCT-116 colon): > 100 µM | TGI (SK-MEL-2 melanoma): > 100 µM | TGI (A498 renal): > 100 µM | TGI (IGROV1 ovarian): > 100 µM | TGI (HOP-92 NSCLC): 98 µM | TGI (SF-539 CNS): > 100 µM

Cc1cc2c(c(C#N)c1C)NC(=O)CCC2=O
TGI (CAKI-1 renal): > 100 µM | TGI (U251 CNS): > 100 µM | TGI (HCT-116 colon): > 100 µM | TGI (SK-MEL-2 melanoma): > 100 µM | TGI (A498 renal): > 100 µM | TGI (IGROV1 ovarian): > 100 µM | TGI (SF-539 CNS): > 100 µM

O=C1CC(O)C=C1Nc1ccc(Cl)cc1 (stereo unspecified)
TGI (CAKI-1 renal): > 100 µM | TGI (U251 CNS): > 100 µM | TGI (HCT-116 colon): > 100 µM | TGI (SK-MEL-2 melanoma): > 100 µM | TGI (A498 renal): 32.6 µM | TGI (IGROV1 ovarian): > 100 µM | TGI (HOP-92 NSCLC): > 100 µM | TGI (SF-539 CNS): > 100 µM

Cc1nc2c(nc1C)C(=O)c1cc(O)ccc1C2=O
TGI (CAKI-1 renal): > 100 µM | TGI (U251 CNS): > 100 µM | TGI (HCT-116 colon): > 100 µM | TGI (SK-MEL-2 melanoma): > 100 µM | TGI (A498 renal): > 100 µM | TGI (IGROV1 ovarian): > 100 µM | TGI (HOP-92 NSCLC): > 100 µM | TGI (SF-539 CNS): > 100 µM

CCOc1ccccc1NC(=O)C(=O)CC(=O)c1c(C)n([O-])c2ccccc2[n+]1=O
TGI (CAKI-1 renal): > 100 µM | TGI (U251 CNS): > 100 µM | TGI (HCT-116 colon): > 100 µM | TGI (SK-MEL-2 melanoma): > 100 µM | TGI (A498 renal): > 100 µM | TGI (IGROV1 ovarian): > 100 µM | TGI (HOP-92 NSCLC): > 100 µM | TGI (SF-539 CNS): > 100 µM

C=CCC(NC(=O)OC(C)(C)C)C(=O)NC(CCC(=O)OCc1ccc([N+](=O)[O-])cc1)C(N)=O (stereo unspecified) (Boc-[AllylGly]-Glu(ONb)-NH2; configuration not given here)
GI50 (CAKI-1 renal): 19.1 µg/mL | TGI (CAKI-1 renal): 54.5 µg/mL | GI50 (U251 CNS): 65.2 µg/mL | GI50 (SK-MEL-2 melanoma): 26.5 µg/mL | TGI (SK-MEL-2 melanoma): 68.8 µg/mL | GI50 (A498 renal): 13.4 µg/mL | TGI (A498 renal): 27.9 µg/mL | GI50 (IGROV1 ovarian): 34.1 µg/mL | GI50 (HOP-92 NSCLC): 13.3 µg/mL | TGI (HOP-92 NSCLC): 26.5 µg/mL | GI50 (T-47D breast): 77 µg/mL | GI50 (SF-539 CNS): 20.6 µg/mL | TGI (SF-539 CNS): 37.6 µg/mL

Cc1c2c(nn1-c1ccc(S(=O)(=O)NC(=S)Nc3ccccc3)cc1)-c1ccccc1CC2
GI50 (CAKI-1 renal): 1.85 µM | TGI (CAKI-1 renal): 36.2 µM | GI50 (U251 CNS): 39.6 µM | TGI (U251 CNS): > 50 µM | GI50 (HCT-116 colon): 18.2 µM | TGI (HCT-116 colon): > 50 µM | GI50 (SK-MEL-2 melanoma): > 50 µM | TGI (SK-MEL-2 melanoma): > 50 µM | GI50 (IGROV1 ovarian): 20.6 µM | TGI (IGROV1 ovarian): > 50 µM | GI50 (HOP-92 NSCLC): > 50 µM | TGI (HOP-92 NSCLC): > 50 µM | GI50 (T-47D breast): > 50 µM | TGI (T-47D breast): > 50 µM | GI50 (SF-539 CNS): > 50 µM | TGI (SF-539 CNS): > 50 µM | GI50 (DU-145 prostate): > 50 µM | TGI (DU-145 prostate): > 50 µM

COc1ccc2[nH]c3c(c2c1)CCN(C)CC3
TGI (CAKI-1 renal): > 100 µM | TGI (U251 CNS): > 100 µM | TGI (HCT-116 colon): > 100 µM | TGI (SK-MEL-2 melanoma): > 100 µM | TGI (A498 renal): > 100 µM | TGI (IGROV1 ovarian): > 100 µM | TGI (HOP-92 NSCLC): > 100 µM | TGI (SF-539 CNS): > 100 µM

COC(=O)C1CC2(CC3=C1CCCC3)OCCO2 (stereo unspecified)
TGI (CAKI-1 renal): > 100 µM | TGI (U251 CNS): > 100 µM | TGI (HCT-116 colon): > 100 µM | TGI (SK-MEL-2 melanoma): > 100 µM | TGI (A498 renal): > 100 µM | TGI (IGROV1 ovarian): > 100 µM | TGI (HOP-92 NSCLC): > 100 µM | TGI (SF-539 CNS): > 100 µM

N#CCC(=O)Nc1cccc(C(F)(F)F)c1
TGI (CAKI-1 renal): > 100 µM | TGI (U251 CNS): > 100 µM | TGI (HCT-116 colon): > 100 µM | TGI (SK-MEL-2 melanoma): > 100 µM | TGI (A498 renal): > 100 µM | TGI (IGROV1 ovarian): > 100 µM | TGI (SF-539 CNS): > 100 µM

CC(=O)O/C=C(/C=C/OC(C)=O)C(C/C=C(\C)C#CC=C(C)C)OC(C)=O (stereo unspecified)
TGI (CAKI-1 renal): > 100 µM | TGI (U251 CNS): > 100 µM | TGI (HCT-116 colon): 39 µM | TGI (SK-MEL-2 melanoma): > 100 µM | TGI (A498 renal): > 100 µM | TGI (IGROV1 ovarian): 95.6 µM | TGI (HOP-92 NSCLC): 91.3 µM | TGI (SF-539 CNS): 54.6 µM

Cc1cc(-c2ncc(CC(=O)Nc3ccc(-c4cnccn4)cn3)cc2C)ccn1
GI50 (CAKI-1 renal): 17.1 µM | TGI (CAKI-1 renal): > 100 µM | GI50 (U251 CNS): 24.6 µM | TGI (U251 CNS): > 100 µM | GI50 (HCT-116 colon): 49 µM | TGI (HCT-116 colon): > 100 µM | GI50 (SK-MEL-2 melanoma): 27.8 µM | TGI (SK-MEL-2 melanoma): > 100 µM | GI50 (A498 renal): 2.8 µM | TGI (A498 renal): 65.5 µM | GI50 (IGROV1 ovarian): 30.5 µM | TGI (IGROV1 ovarian): > 100 µM | GI50 (HOP-92 NSCLC): 12 µM | TGI (HOP-92 NSCLC): 81.8 µM | GI50 (SF-539 CNS): 26.1 µM | TGI (SF-539 CNS): > 100 µM | GI50 (DU-145 prostate): 72.9 µM | TGI (DU-145 prostate): > 100 µM

CC(=O)C1CC(C)=CCC12C(=O)Nc1ccccc12 (stereo unspecified)
TGI (CAKI-1 renal): > 100 µM | TGI (U251 CNS): > 100 µM | TGI (HCT-116 colon): > 100 µM | TGI (SK-MEL-2 melanoma): > 100 µM | TGI (A498 renal): > 100 µM | TGI (IGROV1 ovarian): > 100 µM | TGI (HOP-92 NSCLC): > 100 µM | TGI (SF-539 CNS): > 100 µM

CC1=C(C(=O)Nc2c(C)cccc2C)C(c2ccc3c(c2)OCO3)C(C(=O)Nc2c(C)cccc2C)=C(C)N1
TGI (CAKI-1 renal): 59 µM | TGI (U251 CNS): 29.1 µM | TGI (HCT-116 colon): 27.3 µM | TGI (IGROV1 ovarian): 28.5 µM | TGI (SF-539 CNS): 37.7 µM

CNC(P(=O)([O-])[O-])P(=O)([O-])[O-].N.N.[Pt+2]
GI50 (CAKI-1 renal): > 100 µM | TGI (CAKI-1 renal): > 100 µM | GI50 (U251 CNS): > 100 µM | TGI (U251 CNS): > 100 µM | GI50 (HCT-116 colon): > 100 µM | TGI (HCT-116 colon): > 100 µM | GI50 (SK-MEL-2 melanoma): > 100 µM | TGI (SK-MEL-2 melanoma): > 100 µM | GI50 (IGROV1 ovarian): > 100 µM | TGI (IGROV1 ovarian): > 100 µM | GI50 (SF-539 CNS): > 100 µM | TGI (SF-539 CNS): > 100 µM

N#Cc1c(Sc2ccccc2N)cccc1Sc1ccccc1N
GI50 (CAKI-1 renal): 60.8 µM | GI50 (U251 CNS): 35.6 µM | GI50 (HCT-116 colon): 71.9 µM | GI50 (IGROV1 ovarian): 50.9 µM | GI50 (HOP-92 NSCLC): 31 µM | GI50 (T-47D breast): 51.7 µM | GI50 (SF-539 CNS): 69.7 µM
